In patent US10597388B2, “Pyridazinone herbicides” (FMC CORPORATION, priority 2014, dated 2020):

Key:
Format in all cases: in vivo
[1] = tested on: foxtail, giant (giant foxtail, Setaria faberii); assay: Test E greenhouse herbicide test, pre- and postemergence; details: Preemergence
Outline: (§1)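 Scores (0–100, visual, vs controls) reflect greenhouse growth of 14 to 21 d after treatment. Application was pre-emergence to silt loam or post-emergence at the 1- to 4-leaf stage.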

[2] = tested on: Canada thistle (Cirsium arvense); assay: Test D controlled growth environment herbicide test, pre- and postemergence; details: for Canada Thistle plant response rating / Plant response rating (scale of 0 to 100), Canada Thistle: 31 g ai/ha
Outline: (§2)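 Pre-emergence: seeds sown in silt loam soil were sprayed with compound in a non-phytotoxic solvent mix containing surfactant. Post-emergence: plants at 2 to 18 cm (1- to 4-leaf stage) in peat moss/vermiculite medium got the same formulation. Visual 0–100 rating versus controls after 14 to 21 d.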

[3] = tested on: geranium, cutleaf (cutleaf geranium, Geranium dissectum); assay: as above
Outline: as §2

[4] = tested on: wild poinsettia (Euphorbia heterophylla); assay: Test E greenhouse herbicide test, pre- and postemergence
Outline: as §1

[5] = 62 g ai/ha, scale 0 to 100 (0 no effect, 100 complete control)
[6] = 31 g ai/ha, scale 0 to 100, 0 no effect, 100 complete control
[7] = 125 g ai/ha, visual, scale 0 no effect to 100 complete control
[8] = 250 g ai/ha, visual, scale 0 no effect to 100 complete control
[9] = Postemergence, scale 0 to 100 (0 no effect, 100 complete control)
[10] = Postemergence, 125 g ai/ha, visual rating on scale 0 (no effect) to 100 (complete control), 14 to 21 d
[11] = Postemergence, 250 g ai/ha, scale 0 to 100 (0 no effect, 100 complete control)
[12] = Preemergence, 62 g ai/ha, scale 0 to 100 (0 no effect, 100 complete control)
[13] = Preemergence, 125 g ai/ha, scale 0 to 100 (0 no effect, 100 complete control)
[14] = Preemergence, 250 g ai/ha, scale 0 to 100 (0 no effect, 100 complete control)
[15] = postemergence, 62 g ai/ha, scale 0 to 100, 0 no effect, 100 complete control
[16] = Postemergence, 31 g ai/ha, scale 0 to 100 (0 no effect, 100 complete control)
[17] = 125 g ai/ha, scale 0 to 100 (0 no effect, 100 complete control)
[18] = 62 g ai/ha, Postemergence, scale 0 to 100 (0 no effect, 100 complete control)
[19] = 125 g ai/ha, Postemergence, scale 0 to 100 (0 no effect, 100 complete control)
[20] = 125 g ai/ha, Preemergence, scale 0 to 100 (0 no effect, 100 complete control)
[21] = 250 g ai/ha, Postemergence, scale 0 to 100 (0 no effect, 100 complete control)
[22] = Postemergence, 31 g ai/ha, visual, scale 0 no effect to 100 complete control
[23] = Preemergence, 31 g ai/ha, scale 0 to 100, 0 no effect, 100 complete control
[24] = Preemergence, 250 g ai/ha, visual, scale 0 no effect to 100 complete control
[25] = Preemergence, scale 0 to 100, 0 no effect, 100 complete control
[26] = 62 g ai/ha, Preemergence, scale 0 to 100 (0 no effect, 100 complete control)

CC(=O)Oc1c(C)nn(C)c(=O)c1-c1c(C)sc2c(C)cc(C)cc12 [Compound 27]
Plant response rating, Foxtail, Giant [1, 5]: 98 | Plant response rating, Foxtail, Giant [1, 6]: 95 | Plant response rating, Foxtail, Giant [1, 7]: 100 | Plant response rating, Foxtail, Giant [1, 8]: 100

CC(=O)Oc1c(C)nn(C)c(=O)c1-c1c(C)cc(C)c2ccccc12 [Compound 153]
Canada Thistle plant response rating [2, 9]: 98 | Plant response rating, Canada Thistle [2, 10]: 100 | Plant response rating, Canada Thistle [2, 11]: 100 | Plant response rating (scale of 0 to 100), Canada Thistle ([2]; Preemergence): 100 | Plant response rating, Canada Thistle [2, 12]: 100 | Plant response rating, Canada Thistle [2, 13]: 100 | Plant response rating, Canada Thistle [2, 14]: 100 | Plant response rating, Canada Thistle [2, 15]: 98 | Geranium, Cutleaf plant response rating [3, 16]: 75 | Plant response rating, Geranium, Cutleaf [3, 10]: 90 | Plant response rating, Geranium, Cutleaf [3, 11]: 98 | Plant response rating (scale of 0 to 100), Geranium, Cutleaf ([3]; Preemergence, 31 g ai/ha): 35 | Plant response rating (scale of 0 to 100), Geranium, Cutleaf ([3]; Preemergence, 62 g ai/ha): 75 | Plant response rating, Geranium, Cutleaf [3, 13]: 85 | Plant response rating, Geranium, Cutleaf [3, 14]: 90 | Plant response rating, Geranium, Cutleaf [3, 15]: 90 | Plant response rating, Foxtail, Giant [1, 5]: 95 | Plant response rating, Foxtail, Giant [1, 17]: 95 | Plant response rating, Foxtail, Giant [1, 6]: 75 | Plant response rating, Foxtail, Giant [1, 8]: 100 | Plant response rating, Poinsettia, Wild [4, 18]: 30 | Plant response rating, Poinsettia, Wild [4, 19]: 50 | Plant response rating, Poinsettia, Wild [4, 20]: 60 | Plant response rating, Poinsettia, Wild [4, 21]: 75 | Plant response rating, Poinsettia, Wild [4, 22]: 20 | Plant response rating, Poinsettia, Wild [4, 23]: 40 | Plant response rating, Poinsettia, Wild [4, 24]: 75 | Plant response rating, Poinsettia, Wild [4, 25]: 50

C#CCOC(=O)Oc1c(C)nn(C)c(=O)c1-c1c(C)sc2ccc(C)cc12 [Compound 87]
Plant response rating, Foxtail, Giant [1, 5]: 65 | Plant response rating, Foxtail, Giant [1, 17]: 70 | Plant response rating, Foxtail, Giant [1, 6]: 25 | Plant response rating, Foxtail, Giant [1, 8]: 95 | Plant response rating, Poinsettia, Wild [4, 26]: 15 | Plant response rating, Poinsettia, Wild [4, 20]: 15 | Plant response rating, Poinsettia, Wild [4, 23]: 0 | Plant response rating, Poinsettia, Wild [4, 24]: 20

CC(=O)Oc1c(Br)nn(C)c(=O)c1-c1c(C)ccc2ccccc12 [Compound 129]
Canada Thistle plant response rating [2, 9]: 100 | Plant response rating, Canada Thistle [2, 10]: 100 | Plant response rating, Canada Thistle [2, 11]: 100 | Plant response rating (scale of 0 to 100), Canada Thistle ([2]; Preemergence): 80 | Plant response rating, Canada Thistle [2, 12]: 100 | Plant response rating, Canada Thistle [2, 13]: 100 | Plant response rating, Canada Thistle [2, 14]: 100 | Plant response rating, Canada Thistle [2, 15]: 100 | Geranium, Cutleaf plant response rating [3, 16]: 60 | Plant response rating, Geranium, Cutleaf [3, 10]: 75 | Plant response rating, Geranium, Cutleaf [3, 11]: 75 | Plant response rating (scale of 0 to 100), Geranium, Cutleaf ([3]; Preemergence, 31 g ai/ha): 0 | Plant response rating (scale of 0 to 100), Geranium, Cutleaf ([3]; Preemergence, 62 g ai/ha): 0 | Plant response rating, Geranium, Cutleaf [3, 13]: 70 | Plant response rating, Geranium, Cutleaf [3, 14]: 95 | Plant response rating, Geranium, Cutleaf [3, 15]: 70

CCC(=O)Oc1c(C)nn(C)c(=O)c1-c1c(C)sc2ccc(Cl)cc12 [Compound 109]
Plant response rating, Foxtail, Giant [1, 5]: 40 | Plant response rating, Foxtail, Giant [1, 17]: 80 | Plant response rating, Foxtail, Giant ([1]; 16 g ai/ha, scale 0 to 100, 0 no effect, 100 complete control): 0 | Plant response rating, Foxtail, Giant [1, 6]: 35 | Plant response rating, Poinsettia, Wild [4, 18]: 45 | Plant response rating, Poinsettia, Wild [4, 19]: 50 | Plant response rating, Poinsettia, Wild [4, 20]: 30 | Plant response rating, Poinsettia, Wild ([4]; Postemergence, 16 g ai/ha, visual, scale 0 no effect to 100 complete control): 0 | Plant response rating, Poinsettia, Wild [4, 22]: 25 | Plant response rating, Poinsettia, Wild ([4]; Preemergence, 16 g ai/ha, scale 0 to 100, 0 no effect, 100 complete control): 10 | Plant response rating, Poinsettia, Wild [4, 23]: 10 | Plant response rating, Poinsettia, Wild [4, 25]: 25

CCOC(=O)Oc1c(C)nn(C)c(=O)c1-c1c(C)sc2ccc(C)cc12 [Compound 82]
Plant response rating, Foxtail, Giant [1, 5]: 65 | Plant response rating, Foxtail, Giant [1, 17]: 50 | Plant response rating, Foxtail, Giant [1, 6]: 30 | Plant response rating, Foxtail, Giant [1, 8]: 95 | Plant response rating, Poinsettia, Wild [4, 18]: 30 | Plant response rating, Poinsettia, Wild [4, 26]: 0 | Plant response rating, Poinsettia, Wild [4, 19]: 40 | Plant response rating, Poinsettia, Wild [4, 20]: 0 | Plant response rating, Poinsettia, Wild [4, 21]: 50 | Plant response rating, Poinsettia, Wild [4, 22]: 40 | Plant response rating, Poinsettia, Wild [4, 23]: 0 | Plant response rating, Poinsettia, Wild [4, 24]: 20

COC(=O)Oc1c(C)nn(C)c(=O)c1-c1c(C)sc2c(C)cc(C)cc12 [Compound 81]
Plant response rating, Foxtail, Giant [1, 5]: 98 | Plant response rating, Foxtail, Giant [1, 17]: 98 | Plant response rating, Foxtail, Giant [1, 6]: 75 | Plant response rating, Foxtail, Giant [1, 8]: 100 | Plant response rating, Poinsettia, Wild [4, 18]: 40 | Plant response rating, Poinsettia, Wild [4, 26]: 5 | Plant response rating, Poinsettia, Wild [4, 19]: 40 | Plant response rating, Poinsettia, Wild [4, 20]: 30 | Plant response rating, Poinsettia, Wild [4, 21]: 50 | Plant response rating, Poinsettia, Wild [4, 22]: 30 | Plant response rating, Poinsettia, Wild [4, 23]: 0 | Plant response rating, Poinsettia, Wild [4, 24]: 60

Cc1ccc2ccccc2c1-c1c(O)c(C)nn(C)c1=O [Compound 59]
Plant response rating, Foxtail, Giant [1, 5]: 95 | Plant response rating, Foxtail, Giant [1, 6]: 85 | Plant response rating, Foxtail, Giant [1, 7]: 98 | Plant response rating, Foxtail, Giant [1, 8]: 100
